{"source": "patent US12338220B2", "about": "“Antiviral pyrazolopiridinone compounds” (Novartis AG, priority 2019, dated 2025)", "key": {"[1]": {"target": "CMV-polymerase (Human cytomegalovirus (strain AD169) (HHV-5) (Human herpesvirus 5), UniProt P08546)", "assay": "biochemical"}, "[2]": {"test_system": "CMV", "assay": "microbe, parasite or virus in culture", "assay_type": "cell-based", "conditions": "Human betaherpesvirus 5, 72 h, read-out: CMV-Luc Cellular EC50, NN-NHDF cells, MOI 1, 72 hrs"}, "[3]": {"conditions": "read-out: CMV-polymerase Biochemical IC50"}, "[4]": {"conditions": "CMV-polymerase Biochemical IC50"}}, "note": "Where two headings read alike, the source gives them in different places."}
{"smiles": "Cn1nc(C(=O)NCc2ccc(C#N)cc2)c2c1C(=O)N(CC1(S(=O)(=O)C3(C(O)CN)CC3)CC1)CC2", "note": "(stereo not drawn) [Example 208, 6-((1-((1-(2-Amino-1-hydroxyethyl)cyclopropyl)sulfonyl)cyclopropyl)methyl)-N-(4-cyanobenzyl)-1-methyl-7-oxo-4,5,6,7-tetrahydro-1H-pyrazolo[3,4-c]pyridine-3-carboxamide]", "values": [{"measurement": "IC50", "setting": "[1]; [3]", "result": 1, "unit": "nM"}, {"measurement": "EC50", "setting": "[2]", "result": 51, "unit": "nM"}]}
{"smiles": "Cn1nc(C(=O)NCc2ccc(C#N)cc2)c2c1C(=O)N(CC1(S(=O)(=O)C(C)(C)COC(F)(F)CN)CC1)CC2", "note": "[Example 85, 6-((1-((1-(2-Amino-1,1-difluoroethoxy)-2-methylpropan-2-yl)sulfonyl)cyclopropyl)methyl)-N-(4-cyanobenzyl)-1-methyl-7-oxo-4,5,6,7-tetrahydro-1H-pyrazolo[3,4-c]pyridine-3-carboxamide]", "values": [{"measurement": "IC50", "setting": "[1]; [4]", "result": 3, "unit": "nM"}, {"measurement": "EC50", "setting": "[2]", "result": 50, "unit": "nM"}]}
{"smiles": "Cn1nc(C(=O)NCc2ccc(C#N)cc2)c2c1C(=O)N(CC1(S(=O)(=O)C(C)(C)CN3CC(O)C3)CC1)CC2", "note": "[Example 65, N-(4-Cyanobenzyl)-6-((1-((1-(3-hydroxyazetidin-1-yl)-2-methylpropan-2-yl)sulfonyl)cyclopropyl)methyl)-1-methyl-7-oxo-4,5,6,7-tetrahydro-1H-pyrazolo[3,4-c]pyridine-3-carboxamide]", "values": [{"measurement": "IC50", "setting": "[1]; [3]", "result": 2, "unit": "nM"}, {"measurement": "EC50", "setting": "[2]", "result": 50, "unit": "nM"}]}
{"smiles": "Cn1ccc(NS(=O)(=O)C2(CN3CCc4c(C(=O)NCc5ccc(C#N)cc5)nn(C)c4C3=O)CC2)n1", "note": "[Example 156, N-(4-Cyanobenzyl)-1-methyl-6-((1-(N-(1-methyl-1H-pyrazol-3-yl)sulfamoyl)cyclopropyl)methyl)-7-oxo-4,5,6,7-tetrahydro-1H-pyrazolo[3,4-c]pyridine-3-carboxamide]", "values": [{"measurement": "IC50", "setting": "[1]; [3]", "result": 3, "unit": "nM"}, {"measurement": "EC50", "setting": "[2]", "result": 100, "unit": "nM"}]}
{"smiles": "Cn1nc(-c2cc(Cc3ccc(C#N)cc3)on2)c2c1C(=O)N(CC1(S(=O)(=O)C3CC3)CC1)CC2", "note": "[Example 34, 4-((3-(6-((1-(Cyclopropylsulfonyl)cyclopropyl)methyl)-1-methyl-7-oxo-4,5,6,7-tetrahydro-1H-pyrazolo[3,4-c]pyridin-3-yl)isoxazol-5-yl)methyl)benzonitrile]", "values": [{"measurement": "IC50", "setting": "[1]; [4]", "result": 1, "unit": "nM"}, {"measurement": "EC50", "setting": "[2]", "result": 10, "unit": "nM"}]}
{"smiles": "COc1cc(CNC(=O)c2nn(C)c3c2CCN(CC2(S(=O)(=O)C4CC4)CC2)C3=O)ccc1C#N", "note": "[Example 15, N-(4-Cyano-3-methoxybenzyl)-6-((1-(cyclopropylsulfonyl)cyclopropyl)methyl)-1-methyl-7-oxo-4,5,6,7-tetrahydro-1H-pyrazolo[3,4-c]pyridine-3-carboxamide]", "values": [{"measurement": "IC50", "setting": "[1]; [3]", "result": 11, "unit": "nM"}, {"measurement": "EC50", "setting": "[2]", "result": 162, "unit": "nM"}]}
{"smiles": "Cn1nc(C(=O)NCc2ccc(C#N)cc2)c2c1C(=O)N(CC1(S(=O)(=O)N3CCOCC3)CC1)CC2", "note": "[Example 124, N-(4-Cyanobenzyl)-1-methyl-6-((1-(morpholinosulfonyl)cyclopropyl)methyl)-7-oxo-4,5,6,7-tetrahydro-1H-pyrazolo[3,4-c]pyridine-3-carboxamide]", "values": [{"measurement": "IC50", "setting": "[1]; [3]", "result": 6, "unit": "nM"}, {"measurement": "EC50", "setting": "[2]", "result": 156, "unit": "nM"}]}
{"smiles": "Cn1nc(C(=O)NCc2ccc(Cl)cc2)c2c1C(=O)N(CC1(S(=O)(=O)C(C)(C)[C@H](O)CO)CC1)CC2", "note": "[Example 191, (R)—N-(4-Chlorobenzyl)-6-((1-((3,4-dihydroxy-2-methylbutan-2-yl)sulfonyl)cyclopropyl)methyl)-1-methyl-7-oxo-4,5,6,7-tetrahydro-1H-pyrazolo[3,4-c]pyridine-3-carboxamide]", "values": [{"measurement": "IC50", "setting": "[1]; [3]", "result": 1, "unit": "nM"}, {"measurement": "EC50", "setting": "[2]", "result": 5, "unit": "nM"}]}
{"smiles": "Cn1nc(C(=O)NCc2ccc(C#N)cc2)c2c1C(=O)N(CC1(S(=O)(=O)N3C[C@@H](N)[C@H](O)C3)CC1)CC2", "note": "[Example 139, 6-((1-(((3R,4R)-3-Amino-4-hydroxypyrrolidin-1-yl)sulfonyl)cyclopropyl)methyl)-N-(4-cyanobenzyl)-1-methyl-7-oxo-4,5,6,7-tetrahydro-1H-pyrazolo[3,4-c]pyridine-3-carboxamide]", "values": [{"measurement": "IC50", "setting": "[1]; [3]", "result": 8, "unit": "nM"}, {"measurement": "EC50", "setting": "[2]", "result": 533, "unit": "nM"}]}
{"smiles": "Cn1nc(-c2nnnn2Cc2ccc(C#N)cc2)c2c1C(=O)N(CC1(S(=O)(=O)C3CC3)CC1)CC2", "note": "[Example 30, 4-((5-(6-((1-(cyclopropylsulfonyl)cyclopropyl)methyl)-1-methyl-7-oxo-4,5,6,7-tetrahydro-1H-pyrazolo[3,4-c]pyridin-3-yl)-1H-tetrazol-1-yl)methyl)benzonitrile]", "values": [{"measurement": "IC50", "setting": "[1]; [3]", "result": 940, "unit": "nM"}, {"measurement": "EC50", "setting": "[2]", "result": "> 10000", "unit": "nM"}]}
{"smiles": "Cn1nc(C(=O)NCc2ccc(Cl)cc2)c2c1C(=O)N(CC1(S(C)(=O)=O)CC1)CC2", "note": "[Example 22, N-(4-Chlorobenzyl)-1-methyl-6-((1-(methylsulfonyl)cyclopropyl)methyl)-7-oxo-4,5,6,7-tetrahydro-1H-pyrazolo[3,4-c]pyridine-3-carboxamide]", "values": [{"measurement": "IC50", "setting": "[1]; [3]", "result": 12, "unit": "nM"}, {"measurement": "EC50", "setting": "[2]", "result": 113, "unit": "nM"}]}
{"smiles": "CS(=O)(=O)C1(CN2CCc3c(C(=O)NCc4ccc(Cl)cc4)nn(CCO)c3C2=O)CC1", "note": "[Example 219, N-(4-Chlorobenzyl)-1-(2-hydroxyethyl)-6-((1-(methylsulfonyl)cyclopropyl)methyl)-7-oxo-4,5,6,7-tetrahydro-1H-pyrazolo[3,4-c]pyridine-3-carboxamide]", "values": [{"measurement": "IC50", "setting": "[1]; [3]", "result": 30, "unit": "nM"}, {"measurement": "EC50", "setting": "[2]", "result": 207, "unit": "nM"}]}
{"smiles": "Cn1nc(C(=O)NCc2ccc(C#N)cc2)c2c1C(=O)N(CC1(S(=O)(=O)NC3CCNCC3)CC1)CC2", "note": "[Example 137, N-(4-Cyanobenzyl)-1-methyl-7-oxo-6-((1-(N-(piperidin-4-yl)sulfamoyl)cyclopropyl)methyl)-4,5,6,7-tetrahydro-1H-pyrazolo[3,4-c]pyridine-3-carboxamide]", "values": [{"measurement": "IC50", "setting": "[1]; [3]", "result": 44, "unit": "nM"}, {"measurement": "EC50", "setting": "[2]", "result": 636, "unit": "nM"}]}
{"smiles": "Cn1nc(C(=O)NCc2ccc(C#N)cc2)c2c1C(=O)N(CC1(S(=O)(=O)CC(C)(C)O)CC1)CC2", "note": "[Example 118, N-(4-Cyanobenzyl)-6-((1-((2-hydroxy-2-methylpropyl)sulfonyl)cyclopropyl)methyl)-1-methyl-7-oxo-4,5,6,7-tetrahydro-1H-pyrazolo[3,4-c]pyridine-3-carboxamide]", "values": [{"measurement": "IC50", "setting": "[1]; [3]", "result": 19, "unit": "nM"}, {"measurement": "EC50", "setting": "[2]", "result": 327, "unit": "nM"}]}
{"smiles": "CC(C)(CO)S(=O)(=O)C1(CN2CCc3c(C(=O)NCc4ccc(C#N)cc4)nn(CCOCCBr)c3C2=O)CC1", "note": "[Example 238, 1-(2-(2-bromoethoxy)ethyl)-N-(4-cyanobenzyl)-6-((1-((1-hydroxy-2-methylpropan-2-yl)sulfonyl)cyclopropyl)methyl)-7-oxo-4,5,6,7-tetrahydro-1H-pyrazolo[3,4-c]pyridine-3-carboxamide]", "values": [{"measurement": "IC50", "setting": "[1]; [3]", "result": 1, "unit": "nM"}, {"measurement": "EC50", "setting": "[2]", "result": 16, "unit": "nM"}]}
{"smiles": "Cn1nc(-c2nnc(Cc3ccc(C#N)cc3)o2)c2c1C(=O)N(CC1(S(=O)(=O)C3CC3)CC1)CC2", "note": "[Example 26, 4-((5-(6-((1-(Cyclopropylsulfonyl)cyclopropyl)methyl)-1-methyl-7-oxo-4,5,6,7-tetrahydro-1H-pyrazolo[3,4-c]pyridin-3-yl)-1,3,4-oxadiazol-2-yl)methyl)benzonitrile]", "values": [{"measurement": "IC50", "setting": "[1]; [4]", "result": 52, "unit": "nM"}, {"measurement": "EC50", "setting": "[2]", "result": 761, "unit": "nM"}]}
{"smiles": "Cn1nc(C(=O)NCc2ccc(C#N)cc2)c2c1C(=O)N(CC1(S(=O)(=O)N3CCNCC3)CC1)CC2", "note": "[Example 133, N-(4-Cyanobenzyl)-1-methyl-7-oxo-6-((1-(piperazin-1-ylsulfonyl)cyclopropyl)methyl)-4,5,6,7-tetrahydro-1H-pyrazolo[3,4-c]pyridine-3-carboxamide]", "values": [{"measurement": "IC50", "setting": "[1]; [3]", "result": 20, "unit": "nM"}, {"measurement": "EC50", "setting": "[2]", "result": 97, "unit": "nM"}]}
{"smiles": "CN(C)CC(=O)NCC(C)(C)S(=O)(=O)C1(CN2CCc3c(C(=O)NCc4ccc(C#N)cc4)nn(C)c3C2=O)CC1", "note": "[Example 78, N-(4-Cyanobenzyl)-6-((1-((1-(2-(dimethylamino)acetamido)-2-methylpropan-2-yl)sulfonyl)cyclopropyl)methyl)-1-methyl-7-oxo-4,5,6,7-tetrahydro-1H-pyrazolo[3,4-c]pyridine-3-carboxamide]", "values": [{"measurement": "IC50", "setting": "[1]; [3]", "result": 26, "unit": "nM"}, {"measurement": "EC50", "setting": "[2]", "result": 112, "unit": "nM"}]}
{"smiles": "C[C@@H](N)C(=O)NCC(C)(C)S(=O)(=O)C1(CN2CCc3c(C(=O)NCc4ccc(C#N)cc4)nn(C)c3C2=O)CC1", "note": "[Example 75, (R)-6-((1-((1-(2-Aminopropanamido)-2-methylpropan-2-yl)sulfonyl)cyclopropyl)methyl)-N-(4-cyanobenzyl)-1-methyl-7-oxo-4,5,6,7-tetrahydro-1H-pyrazolo[3,4-c]pyridine-3-carboxamide]", "values": [{"measurement": "IC50", "setting": "[1]; [3]", "result": 7, "unit": "nM"}, {"measurement": "EC50", "setting": "[2]", "result": 47, "unit": "nM"}]}
{"smiles": "Cn1nc(C(=O)NCc2ccc(C#N)cc2)c2c1C(=O)N(CC1(S(=O)(=O)C(C)(C)CNC(=O)C(C)(C)N)CC1)CC2", "note": "[Example 77, 6-((1-((1-(2-Amino-2-methylpropanamido)-2-methylpropan-2-yl)sulfonyl)cyclopropyl)methyl)-N-(4-cyanobenzyl)-1-methyl-7-oxo-4,5,6,7-tetrahydro-1H-pyrazolo[3,4-c]pyridine-3-carboxamide]", "values": [{"measurement": "IC50", "setting": "[1]; [3]", "result": 12, "unit": "nM"}, {"measurement": "EC50", "setting": "[2]", "result": 115, "unit": "nM"}]}
{"smiles": "Cn1nc(C(=O)NCc2ccc(Cl)cc2)c2c1C(=O)N(CC1(S(=O)(=O)NC(C)(C)CO)CC1)CC2", "note": "[Example 148, N-(4-Chlorobenzyl)-6-((1-(N-(1-hydroxy-2-methylpropan-2-yl)sulfamoyl)cyclopropyl)methyl)-1-methyl-7-oxo-4,5,6,7-tetrahydro-1H-pyrazolo[3,4-c]pyridine-3-carboxamide]", "values": [{"measurement": "IC50", "setting": "[1]; [3]", "result": 15, "unit": "nM"}, {"measurement": "EC50", "setting": "[2]", "result": 139, "unit": "nM"}]}
{"smiles": "C[C@H](NC(=O)c1nn(C)c2c1CCN(CC1(S(=O)(=O)C3CC3)CC1)C2=O)c1ccc(C#N)cc1", "note": "[Example 16, (S)-N-(1-(4-Cyanophenyl)ethyl)-6-((1-(cyclopropylsulfonyl)cyclopropyl)methyl)-1-methyl-7-oxo-4,5,6,7-tetrahydro-1H-pyrazolo[3,4-c]pyridine-3-carboxamide]", "values": [{"measurement": "IC50", "setting": "[1]; [3]", "result": 13, "unit": "nM"}, {"measurement": "EC50", "setting": "[2]", "result": 170, "unit": "nM"}]}
{"smiles": "Cn1nc(C(=O)NCc2ccc(C#N)cc2)c2c1C(=O)N(CC1(S(=O)(=O)N3CCC(O)CC3)CC1)CC2", "note": "[Example 125, N-(4-Cyanobenzyl)-6-((1-((4-hydroxypiperidin-1-yl)sulfonyl)cyclopropyl)methyl)-1-methyl-7-oxo-4,5,6,7-tetrahydro-1H-pyrazolo[3,4-c]pyridine-3-carboxamide]", "values": [{"measurement": "IC50", "setting": "[1]; [3]", "result": 3, "unit": "nM"}, {"measurement": "EC50", "setting": "[2]", "result": 196, "unit": "nM"}]}
{"smiles": "O=C(NCc1ccc(Cl)cc1)c1nn(CCO)c2c1CCN(CC1(S(=O)(=O)C3CC3)CC1)C2=O", "note": "[Example 218, N-(4-Chlorobenzyl)-6-((1-(cyclopropylsulfonyl)cyclopropyl)methyl)-1-(2-hydroxyethyl)-7-oxo-4,5,6,7-tetrahydro-1H-pyrazolo[3,4-c]pyridine-3-carboxamide]", "values": [{"measurement": "IC50", "setting": "[1]; [3]", "result": 6, "unit": "nM"}, {"measurement": "EC50", "setting": "[2]", "result": 42, "unit": "nM"}]}
